Data as given in article PMC6001238, “Iterative Chemical Engineering of Vancomycin Leads to Novel Vancomycin Analogs With a High in Vitro Therapeutic Index” (Frontiers in Microbiology, 2018).
Converted amounts (≈) assume the structure as drawn.

Key:
E. faecalis VSE 1 = experiment: MIC, broth microdilution, vancomycin-sensitive E. faecalis (VSE 1); type: cell-based, Enterococcus faecalis; details: for MIC: Enterococcus faecalis VSE 1 (vancomycin-sensitive), read-out: MIC; for MIC-fold improvement vs. vancomycin: VSE 1, ratio of MIC of vancomycin and MIC of analogue
In short: (§1)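 Inhibitory concentrations were read by the CLSI broth microdilution procedure, with water and sterile broth as controls. One experiment added vancomycin (10 μM final) together with each analogue or reference antibiotic.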

E. faecalis VRE 6 = experiment: MIC, broth microdilution, vancomycin-resistant E. faecalis VRE 6 (VanA); type: cell-based, Enterococcus faecalis; details: for MIC: Enterococcus faecalis VRE 6 (vancomycin-resistant), read-out: MIC; for MIC-fold improvement vs. vancomycin: VRE 6, ratio of MIC of vancomycin and MIC of analogue
In short: as §1

E. faecalis VRE 53 = experiment: MIC, broth microdilution, vancomycin-resistant E. faecalis VRE 53 (VanA); type: cell-based, Enterococcus faecalis; details: for MIC: Enterococcus faecalis VRE 53 (vancomycin-resistant), read-out: MIC; for MIC-fold improvement vs. vancomycin: VRE 53, ratio of MIC of vancomycin and MIC of analogue
In short: as §1

E. faecalis VRE 29 = experiment: MIC, broth microdilution, vancomycin-resistant E. faecalis VRE 29 (VanA); type: cell-based, Enterococcus faecalis; details: for MIC: Enterococcus faecalis VRE 29 (vancomycin-resistant), read-out: MIC; for MIC-fold improvement vs. vancomycin: VRE 29, ratio of MIC of vancomycin and MIC of analogue
In short: as §1

E. faecalis VRE 37 = experiment: MIC, broth microdilution, vancomycin-resistant E. faecalis VRE 37 (VanA); type: cell-based, Enterococcus faecalis; details: for MIC: Enterococcus faecalis VRE 37 (vancomycin-resistant), read-out: MIC; for MIC-fold improvement vs. vancomycin: VRE 37, ratio of MIC of vancomycin and MIC of analogue
In short: as §1

[1] = system: Murine leukemia (L1210) cells; experiment: Cytostatic activity, L1210 cell proliferation; type: cell-based; details: mean ± SD of three experiments; highest concentration tested 250 µM; 2 days; read-out: Toxicity (IC50) L1210
In short: (§2)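 Coulter counter cell counts after 37°C culture with compound; IC50 = concentration giving 50% growth inhibition vs negative control. Incubation: L1210 2 d, CEM 3 d, HeLa 4 d. Suspension density before mixing with an equal volume of dilution: 300,000–500,000 cells/mL.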

[2] = system: human T-lymphocyte (CEM) cells; experiment: Cytostatic activity, CEM cell proliferation; type: cell-based; details: mean ± SD of three experiments; highest concentration tested 250 µM; 3 days; read-out: Toxicity (IC50) CEM
In short: as §2

[3] = system: human cervix carcinoma (HeLa) cells; experiment: Cytostatic activity, HeLa cell proliferation; type: cell-based; details: mean ± SD of three experiments; highest concentration tested 250 µM; 4 days; read-out: Toxicity (IC50) HeLa
In short: as §2

[4] = system: L1210, CEM and HeLa cell lines; experiment: Cytostatic activity, average or summary over L1210, CEM and HeLa; type: cell-based; details: average of L1210, CEM and HeLa; read-out: Toxicity (IC50) Average
In short: as §2

[5] = system: S. aureus VSSA (ATCC 6538); experiment: MIC, broth microdilution, vancomycin-sensitive S. aureus (VSSA/MSSA, ATCC 6538); type: cell-based, Staphylococcus aureus; details: for MIC: Staphylococcus aureus VSSA, read-out: MIC; for MIC-fold improvement vs. vancomycin: VSSA, ratio of MIC of vancomycin and MIC of analogue
In short: as §1

S. aureus VISA/HIP5827 = experiment: MIC, broth microdilution, vancomycin-intermediate S. aureus VISA HIP5827; type: cell-based, Staphylococcus aureus; details: for MIC: Staphylococcus aureus VISA/HIP5827, read-out: MIC; for MIC-fold improvement vs. vancomycin: VISA/HIP5827, ratio of MIC of vancomycin and MIC of analogue
In short: as §1

S. aureus VRSA = experiment: MIC, broth microdilution, vancomycin-resistant S. aureus (VRSA); type: cell-based, Staphylococcus aureus; details: for MIC: Staphylococcus aureus VRSA, read-out: MIC; for MIC-fold improvement vs. vancomycin: VRSA, ratio of MIC of vancomycin and MIC of analogue
In short: as §1

MRSA KS2 = experiment: MIC, broth microdilution, MRSA KS2; type: cell-based, Staphylococcus aureus; details: for MIC-fold improvement vs. vancomycin: MRSA KS2, ratio of MIC of vancomycin and MIC of analogue; for MIC: Staphylococcus aureus MRSA KS2, read-out: MIC
In short: as §1

MRSA KS6 = experiment: MIC, broth microdilution, MRSA KS6; type: cell-based, Staphylococcus aureus; details: for MIC-fold improvement vs. vancomycin: MRSA KS6, ratio of MIC of vancomycin and MIC of analogue; for MIC: Staphylococcus aureus MRSA KS6, read-out: MIC
In short: as §1

MRSA KS89 = experiment: MIC, broth microdilution, MRSA KS89; type: cell-based, Staphylococcus aureus; details: for MIC-fold improvement vs. vancomycin: MRSA KS8, ratio of MIC of vancomycin and MIC of analogue; for MIC: Staphylococcus aureus MRSA KS8, read-out: MIC
In short: as §1

MRSA KS1 = experiment: MIC, broth microdilution, MRSA KS1; type: cell-based, Staphylococcus aureus; details: for MIC-fold improvement vs. vancomycin: MRSA KS1, ratio of MIC of vancomycin and MIC of analogue; for MIC: Staphylococcus aureus MRSA KS1, read-out: MIC
In short: as §1

Compound	MIC (E. faecalis VSE 1) [µM]	MIC-fold improvement vs. vancomycin (E. faecalis VSE 1)	MIC (E. faecalis VRE 6) [µM]	MIC-fold improvement vs. vancomycin (E. faecalis VRE 6)	MIC (E. faecalis VRE 53) [µM]	MIC-fold improvement vs. vancomycin (E. faecalis VRE 53)	MIC (E. faecalis VRE 29) [µM]	MIC-fold improvement vs. vancomycin (E. faecalis VRE 29)	MIC (E. faecalis VRE 37) [µM]	IC50 [1] [µM]	IC50 [2] [µM]	IC50 [3] [µM]	IC50 [4] [µM]	MIC [5] [µM]	MIC-fold improvement vs. vancomycin [5]	MIC (S. aureus VISA/HIP5827) [µM]	MIC-fold improvement vs. vancomycin (S. aureus VISA/HIP5827)	MIC (S. aureus VRSA) [µM]	MIC-fold improvement vs. vancomycin (S. aureus VRSA)	MIC-fold improvement vs. vancomycin (MRSA KS2)	also measured
CN[C@H](CC(C)C)C(=O)N[C@H]1C(=O)N[C@@H](CC(N)=O)C(=O)N[C@H]2C(=O)N[C@H]3C(=O)N[C@H](C(=O)N[C@H](C(=O)NCC(=O)Nc4ccc(NS(=O)(=O)c5ccccc5)cc4)c4cc(O)cc(O)c4-c4cc3ccc4O)[C@H](O)c3ccc(c(Cl)c3)Oc3cc2cc(c3O[C@@H]2O[C@H](CO)[C@@H](O)[C@H](O)[C@H]2O[C@H]2C[C@](C)(N)[C@H](O)[C@H](C)O2)Oc2ccc(cc2Cl)[C@H]1O [Vanc-60]	0.39 (≈ 0.677 µg/mL)	4	12.5 (≈ 21.7 µg/mL)	16	12.5 (≈ 21.7 µg/mL)	32	12.5 (≈ 21.7 µg/mL)	32	25 (≈ 43.4 µg/mL)	> 250	219 ± 44	75 ± 29	181	0.39 (≈ 0.677 µg/mL)	2	0.78 (≈ 1.35 µg/mL)	8	0.39 (≈ 0.677 µg/mL)	256	2	MIC-fold improvement vs. vancomycin (E. faecalis VRE 37): 16; MIC (MRSA KS2): 0.39 µM (≈ 0.677 µg/mL); MIC-fold improvement vs. vancomycin (MRSA KS6): 1; MIC (MRSA KS6): 0.78 µM (≈ 1.35 µg/mL); MIC-fold improvement vs. vancomycin (MRSA KS89): 2; MIC (MRSA KS89): 0.39 µM (≈ 0.677 µg/mL); MIC-fold improvement vs. vancomycin (MRSA KS1): 2; MIC (MRSA KS1): 0.39 µM (≈ 0.677 µg/mL)
CN[C@H](CC(C)C)C(=O)N[C@H]1C(=O)N[C@@H](CC(N)=O)C(=O)N[C@H]2C(=O)N[C@H]3C(=O)N[C@H](C(=O)N[C@H](C(=O)NCC(=O)Nc4ccc(NS(=O)(=O)c5ccc(Cl)cc5Cl)cc4)c4cc(O)cc(O)c4-c4cc3ccc4O)[C@H](O)c3ccc(c(Cl)c3)Oc3cc2cc(c3O[C@@H]2O[C@H](CO)[C@@H](O)[C@H](O)[C@H]2O[C@H]2C[C@](C)(N)[C@H](O)[C@H](C)O2)Oc2ccc(cc2Cl)[C@H]1O [Vanc-61]	0.39 (≈ 0.704 µg/mL)	4	3.13 (≈ 5.65 µg/mL)	64	6.25 (≈ 11.3 µg/mL)	64	6.25 (≈ 11.3 µg/mL)	64	12.5 (≈ 22.6 µg/mL)	≥ 250	≥ 250	87 ± 37	196	0.20 (≈ 0.361 µg/mL)	4	0.78 (≈ 1.41 µg/mL)	8	0.39 (≈ 0.704 µg/mL)	256	4	MIC (MRSA KS2): 0.20 µM (≈ 0.361 µg/mL); MIC-fold improvement vs. vancomycin (MRSA KS6): 2; MIC (MRSA KS6): 0.39 µM (≈ 0.704 µg/mL); MIC-fold improvement vs. vancomycin (MRSA KS89): 2; MIC (MRSA KS89): 0.39 µM (≈ 0.704 µg/mL); MIC-fold improvement vs. vancomycin (MRSA KS1): 2; MIC (MRSA KS1): 0.39 µM (≈ 0.704 µg/mL)
CNC(CC(C)C)C(=O)NC1C(=O)NC(CC(N)=O)C(=O)NC2C(=O)NC3C(=O)NC(C(=O)NC(C(=O)NCCNC(=O)C=Cc4ccc(NS(=O)(=O)c5ccc(Cl)cc5)cc4)c4cc(O)cc(O)c4-c4cc3ccc4O)C(O)c3ccc(c(Cl)c3)Oc3cc2cc(c3OC2OC(CO)C(O)C(O)C2OC2CC(C)(N)C(O)C(C)O2)Oc2ccc(cc2Cl)C1O (centres unmarked) [Vanc-62]	0.39 (≈ 0.706 µg/mL)	4	3.13 (≈ 5.67 µg/mL)	64	25 (≈ 45.3 µg/mL)	16	6.25 (≈ 11.3 µg/mL)	64	12.5 (≈ 22.6 µg/mL)	> 250	≥ 250	86 ± 42	195	0.39 (≈ 0.706 µg/mL)	2	1.56 (≈ 2.83 µg/mL)	4	0.78 (≈ 1.41 µg/mL)	128	4	MIC (MRSA KS2): 0.20 µM (≈ 0.362 µg/mL); MIC-fold improvement vs. vancomycin (MRSA KS6): 2; MIC (MRSA KS6): 0.39 µM (≈ 0.706 µg/mL); MIC-fold improvement vs. vancomycin (MRSA KS89): 2; MIC (MRSA KS89): 0.39 µM (≈ 0.706 µg/mL); MIC-fold improvement vs. vancomycin (MRSA KS1): 4; MIC (MRSA KS1): 0.20 µM (≈ 0.362 µg/mL)
CNC(CC(C)C)C(=O)NC1C(=O)NC(CC(N)=O)C(=O)NC2C(=O)NC3C(=O)NC(C(=O)NC(C(=O)NCCCNC(=O)c4ccc5cc(NS(=O)(=O)c6ccccc6)ccc5c4)c4cc(O)cc(O)c4-c4cc3ccc4O)C(O)c3ccc(c(Cl)c3)Oc3cc2cc(c3OC2OC(CO)C(O)C(O)C2OC2CC(C)(N)C(O)C(C)O2)Oc2ccc(cc2Cl)C1O (centres unmarked) [Vanc-63]	0.39 (≈ 0.708 µg/mL)	4	3.13 (≈ 5.68 µg/mL)	64	25 (≈ 45.4 µg/mL)	16	6.25 (≈ 11.3 µg/mL)	64	12.5 (≈ 22.7 µg/mL)	> 250	≥ 250	69 ± 74	190	0.39 (≈ 0.708 µg/mL)	2	0.78 (≈ 1.42 µg/mL)	8	0.78 (≈ 1.42 µg/mL)	128	2	MIC (MRSA KS2): 0.39 µM (≈ 0.708 µg/mL); MIC-fold improvement vs. vancomycin (MRSA KS6): 2; MIC (MRSA KS6): 0.39 µM (≈ 0.708 µg/mL); MIC-fold improvement vs. vancomycin (MRSA KS89): 2; MIC (MRSA KS89): 0.39 µM (≈ 0.708 µg/mL); MIC-fold improvement vs. vancomycin (MRSA KS1): 2; MIC (MRSA KS1): 0.39 µM (≈ 0.708 µg/mL)
CN[C@H](CC(C)C)C(=O)N[C@H]1C(=O)N[C@@H](CC(N)=O)C(=O)N[C@H]2C(=O)N[C@H]3C(=O)N[C@H](C(=O)N[C@H](C(=O)NCCNC(=O)/C=C/c4ccc(NS(=O)(=O)c5ccc(Cl)cc5Cl)cc4)c4cc(O)cc(O)c4-c4cc3ccc4O)[C@H](O)c3ccc(c(Cl)c3)Oc3cc2cc(c3O[C@@H]2O[C@H](CO)[C@@H](O)[C@H](O)[C@H]2O[C@H]2C[C@](C)(N)[C@H](O)[C@H](C)O2)Oc2ccc(cc2Cl)[C@H]1O [Vanc-64]	0.39 (≈ 0.72 µg/mL)	4	3.13 (≈ 5.78 µg/mL)	64	12.5 (≈ 23.1 µg/mL)	32	6.25 (≈ 11.5 µg/mL)	64	6.25 (≈ 11.5 µg/mL)	> 250	210 ± 56	102 ± 39	187	0.39 (≈ 0.72 µg/mL)	2	0.78 (≈ 1.44 µg/mL)	8	0.39 (≈ 0.72 µg/mL)	256	4	MIC-fold improvement vs. vancomycin (E. faecalis VRE 37): 64; MIC (MRSA KS2): 0.20 µM (≈ 0.369 µg/mL); MIC-fold improvement vs. vancomycin (MRSA KS6): 4; MIC (MRSA KS6): 0.20 µM (≈ 0.369 µg/mL); MIC-fold improvement vs. vancomycin (MRSA KS89): 2; MIC (MRSA KS89): 0.39 µM (≈ 0.72 µg/mL); MIC-fold improvement vs. vancomycin (MRSA KS1): 4; MIC (MRSA KS1): 0.20 µM (≈ 0.369 µg/mL)
